Here are results for 4 molecules from patent US20030212052A1, “Use of ursdeoxycholic acid for potentiation of the phototoxic effect of photodynamic therapy” (priority 2003, published 2003).

The subject of data set [1] is hepatoma cell line. The experiment in a line: Promotion of PDT efficacy with lysosomal sensitizer in the hepatoma cell line. The format is cell-based, murine. The settings on record: lysosomal sensitizer Npe6, hepatoma cell line. As to the method:
Cell lines. Studies have been carried out with the murine leukemia L1210 and murine hepatoma hepa 1c1c7 cell lines along with primary rat hepatocyte cultures. Except for the latter, cells are grown in tissue culture. The L1210 cell line is grown in suspension culture in Fischer's medium containing 10% horse serum. The murine hepatoma 1c1c7 cell line was obtained from Dr. J. Whitlock, Jr. (Stanford University, CA). Cells were cultured on either commercially available plastic tissue cutureware, or poly-L-lysine coated glass coverslips or discs, and grown at 37° C. in a-minimal essential medium (aMEM) containing 5% fetal bovine serum and antibiotics. Cultures were passaged by incubation with a trypsin+EDTA solution (0.25% trypsin, 1 mM EDTA in Hank's Balanced Salts Solution). Determination of PDT efficacy. […] The cells were then lysed and levels of caspase-3 activity are assessed using a fluorescent plate reader. […] These substrates were cleaved by caspase-3 to form fluorescent products that were then detected. The plate readers take periodic readings of the emerging fluorescence, permitting a rate to be assessed. […] Protein levels in the lysates were also determined, so that the net result was in terms of caspase-3 activity per mg protein per minute. Photokilling was assessed by clonogenic assays involving the plating of known numbers of cells. […]

In data set [2] the test system is murine hepatoma 1c1c7 cell line. In words: Photokilling assessed by clonogenic assay after SnET2 PDT. The following applies: for number of colonies: irradiation 270 mJ/cm^2 at 630-700 nm, colonies counted four days later, mean±SD of 3-4 plates. The format is cell-based. As to the method: Cell lines. Studies have been carried out with the murine leukemia L1210 and murine hepatoma hepa 1c1c7 cell lines along with primary rat hepatocyte cultures. Except for the latter, cells are grown in tissue culture. The L1210 cell line is grown in suspension culture in Fischer's medium containing 10% horse serum. The murine hepatoma 1c1c7 cell line was obtained from Dr. J. Whitlock, Jr. (Stanford University, CA). Cells were cultured on either commercially available plastic tissue cutureware, or poly-L-lysine coated glass coverslips or discs, and grown at 37° C. in a-minimal essential medium (aMEM) containing 5% fetal bovine serum and antibiotics. Cultures were passaged by incubation with a trypsin+EDTA solution (0.25% trypsin, 1 mM EDTA in Hank's Balanced Salts Solution). Photokilling was assessed by clonogenic assays involving the plating of known numbers of cells. After several days in cell culture, the number of resulting colonies reflected the number of viable cells that survive PDT. Freshly prepared suspensions of 1c1c7 cells were plated in 60 mm culture dishes at a density of 500 cells/dish. Approximately 18 hours later cultures were treated with PDT sensitizer and/or UDCA. After 30 minutes of incubation culture dishes were washed once with complete medium and then refed with complete medium. Refed cultures were subsequently irradiated and returned to incubators. Cultures were refed every third day, and stained with crystal violet once colonies were of sufficient size to score. […] After irradiation of 270 mJ/cm^2 at 630-700 nm, the plates were incubated and the colonies were counted four days later. The data represents the mean±a standard deviation of three to four plates.

For data set [3] the following is noted: cited from earlier work.
The conditions of data set [4]: cited from earlier work. This is another data set of the same source.
The conditions of data set [5]: UDCA analogs/conjugates.

As for `C=Cc1c(C)c2cc3nc(c(CC(=O)N[C@@H](CC(=O)[O-])C(=O)[O-])c4nc(cc5[nH]c(cc1[nH]2)c(C)c5CC)C(C)=C4C(=O)[O-])[C@@H](CCC(=O)[O-])[C@@H]3C.[Na+].[Na+].[Na+].[Na+]` [Npe6], the “promotion of photodynamic therapy efficacy by the potentiator” value in data set [1] is reported as “no evidence of promotion”.

As to `C[C@H](CCC(=O)O)[C@H]1CC[C@H]2[C@@H]3[C@@H](O)C[C@@H]4C[C@H](O)CC[C@]4(C)[C@H]3CC[C@]12C` [UDCA, ursodeoxycholic acid], the number of colonies was found to be 12±5 colonies in data set [2] (UDCA 10 micromoles + SnET2 (2-mM)) and 1±0.7 colonies in data set [2] (UDCA 100 micromoles + SnET2 (2-mM)). Also, the figures for the colonies as percent in data set [2] (UDCA 10 micromoles + SnET2 PDT) and in data set [2] (UDCA 100 micromoles + SnET2 PDT) were 20% and 1.3%, respectively. For the same molecule, in data set [3] (chloraform), the solubility in chloraform result is on record as “slightly soluble”. Also, the “solubility in ethanol and glacial acetic acid” value in data set [3] (ethanol and glacial acetic acid) is on record as “freely soluble”. For the same molecule, the solubility in ether entry in data set [3] (ether) is “sparingly soluble”. Besides, in data set [3] (water), the solubility in water entry is “practically insoluble”. In addition, the hepatic extraction result in data set [4] (once absorbed after oral administration, absence of liver disease) is given as “about 50%”. In addition, the “absorption after oral administration” value in data set [4] (oral administration, passive diffusion) is recorded as “incomplete”.

On to `C[C@H](CCC(=O)NCC(=O)O)[C@H]1CC[C@H]2[C@@H]3[C@@H](O)C[C@@H]4C[C@H](O)CC[C@]4(C)[C@H]3CC[C@]12C` [UDCA-glycine], for which, in data set [5], the “promotion of photodynamic therapeutic photokilling” value is on record as “effective”.

On to `C[C@H](CCC(=O)NCCS(=O)(=O)O)[C@H]1CC[C@H]2[C@@H]3[C@@H](O)C[C@@H]4C[C@H](O)CC[C@]4(C)[C@H]3CC[C@]12C` [UDCA-taurine], for which the “promotion of photodynamic therapeutic photokilling” value in data set [5] is on record as “effective”.
